Results reported in US20250129088A1, “CEREBLON E3 UBIQUITIN LIGASE INHIBITOR” (Gan & Lee Pharmaceuticals Co., Ltd., priority 2022, published 2025).

Tests used:
E3 ubiquitin ligase CRBN = E3 ubiquitin ligase CRBN (Homo sapiens (Human), UniProt Q96SW2); test: CRBN binding activity, HTRF competition with Thalidomide-Red (CEREBLON BINDING KIT); conditions: competition with XL665-labelled thalidomide, 3 hours room temperature
Experimental: From this, the binding force of the compounds to the CRBN protein was determined.
CRBN binding activity test kit (CEREBLON BINDING KITS (PE, 64BDCRBNPEG).
The detection is based on homogeneous time-resolved fluorescence (HTRF) technology.
The donor used in this kit was Europium-labeled GST antibody (GST Eu Cryptate Antibody), and the acceptor was thalidomide labeled with XL665 (Thalidomide-Red reagent). The donor binded to the CRBN protein containing the GST tag.
The donor and acceptor were diluted 50 times using the binding buffer from the kit (PROTAC binding buffer 1). The CRBN protein was diluted 45 times. The disclosed compound solution at 8 mM was diluted 10 times with the diluent from the kit (1× diluent), followed by a five-fold gradient dilution, performed 7 times sequentially.
Incubate at room temperature for 3 hours.
The ratio of the emission signals from the acceptor and donor in each individual well is calculated.
The coefficient of variation (CV)=standard deviation (SD)/mean Ratio*100
Using GraphPad Prism, IC50 values were calculated based on compound concentration, Ratio and coefficient of variation.

Z138 cells = test: Z138 cell proliferation inhibition, CCK-8; type: cell-based; conditions: Homo sapiens, Z-138, 96 h, Z138, 4 days
Experimental: The complete medium required for Z138 cells is IMDM (ATCC, Product number: 30-2005) basal medium containing 10% horse serum. Z138 cells were seeded in a 96-well plate at a density of 10,000 cells/well, and different concentrations of the compound of the present invention and a positive control sample Ibrutinib (source: Bide Pharmaceuticals) were prepared to treat the cells. The cells were incubated in a 37° C., 5% CO2 cell incubator for 4 days. Cell viability was detected using the CCK-8 kit (Beyotime, Product number: C0040) according to the manufacturer's instructions. According to the inhibition rate, the GraphPad Prism software was used to calculate the IC50 value of each compound for 4 days, and the results are shown in Table 14.

JeKo-1 cells = test: JeKo-1 cell proliferation inhibition, CCK-8; type: cell-based; conditions: Homo sapiens, 96 h, JeKo-1, 4 days
Experimental: The complete medium required for JeKo-1 cells is RPMI1640 (ATCC, Product number: 30-2001) basal medium containing 20% fetal bovine serum. The JeKo-1 cells were seeded in a 96-well plate at a density of 10,000 cells/well, and different concentrations of the compounds of the present invention were prepared to treat the cells at the same time. The cells were incubated at a 37° C., 5% CO2 cell culture incubator for 4 days. Cell viability was detected using the CCK-8 kit (Beyotime, Product number: C0040) according to the manufacturer's instructions. According to the inhibition rate, the GraphPad Prism software was used to calculate the IC50 value of each compound for 4 days, and the results are shown in Table 13.

SMILES | IC50 (E3 ubiquitin ligase CRBN) | IC50 (Z138 cells) | IC50 (JeKo-1 cells)
O=C1CCC(N2Cc3cc4c(cc3C2=O)CCC2(CCNCC2)O4)C(=O)N1 (stereo not drawn) [Compound12, 3-(6′-oxo-3′,4′,6′,8′-tetrahydro-7′H-spiro[piperidine-4,2′-pyrano[2,3-f]isoindole]-7′-yl)piperidine-2,6-dione] | 3 µM | – | –
O=C1CCC(N2Cc3cc4c(cc3C2=O)CCC2(CNC2)O4)C(=O)N1 (stereo not drawn) [Compound13, 3-(6′-oxo-3′,4′,6′,8′-tetrahydro-7′H-spiro[azetidine-3,2′-pyrano[2,3-f]isoindole]-7′-yl)piperidine-2,6-dione] | 3.9 µM | – | –
O=C1CCC(N2Cc3cc4c(cc3C2=O)OCC2(CCNCC2)O4)C(=O)N1 (stereo not drawn) [Compound16, 3-(6′-oxo-6′,8′-dihydro-3′H,7′H-spiro[piperidine-4,2′-[1,4]dioxino[2,3-f]isoindole]-7′-yl)piperidine-2,6-dione] | 1.2 µM | – | –
O=C1CCC(N2C(=O)c3cc4c(cc3C2=O)C2(CCNCC2)CO4)C(=O)N1 (stereo not drawn) [Compound17, 6-(2,6-dioxopiperidin-3-yl)-6-hydro-2H, 5H-spiro[[2,3-f]isoindole-3,4′-piperidin]-5,7-dione] | 15.2 µM | – | –
O=C1CCC(N2C(=O)c3ccc4c(c3C2=O)C2(CCNCC2)CO4)C(=O)N1 (stereo not drawn) [Compound27, 2-(2,6-dioxopiperidin-3-yl)-2-hydro-1H,7H-spiro[furo[3,2-e]isoindole-8,4′-piperidine]-1,3-dione] | 36.4 µM | – | –
Nc1ncnc2c1c(-c1ccc(Oc3ccccc3)cc1)nn2[C@@H]1CCCN(CCOCCC(=O)N2CCC3(CCc4cc5c(cc4O3)C(=O)N(C3CCC(=O)NC3=O)C5=O)CC2)C1 (stereo partly drawn) [PROTAC 32, 1-(3-(2-((R)-3-(4-amino-3-(4-phenoxyphenyl)-1H-pyrazolo[3,4-d]pyrimidin-1-yl)piperidin-1-yl)ethoxy)propionyl)-7′-(2,6-dioxopiperidin-3-yl)-3′,4′-dihydro-6′H-spiro[piperidin-4,2′-pyrano[2,3-f]isoindole]-6′,8′(7′H)-dione] | – | 16 µM | 18.4 µM
Nc1ncnc2c1c(-c1ccc(Oc3ccccc3)cc1)nn2[C@@H]1CCCN(CCOCCC(=O)N2CC3(CCc4cc5c(cc4O3)C(=O)N(C3CCC(=O)NC3=O)C5=O)C2)C1 (stereo partly drawn) [PROTAC 33, 1-(3-(2-((R)-3-(4-amino-3-(4-phenoxyphenyl)-1H-pyrazolo[3,4-d]pyrimidin-1-yl)piperidin-1-yl)ethoxy)propionyl)-7′-(2,6-dioxopiperidin-3-yl)-3′,4′-dihydro-6′H-spiro[azetidine-3,2′-pyrano[2,3-f]isoindole]-6′,8′(7′H)-dione] | – | 34.9 µM | 63.8 µM
Nc1ncnc2c1c(-c1ccc(Oc3ccccc3)cc1)nn2[C@@H]1CCCN(CCOCCC(=O)N2CCC3(CCc4cc5c(cc4O3)CN(C3CCC(=O)NC3=O)C5=O)CC2)C1 (stereo partly drawn) [PROTAC 35, 3-(1-(3-(2-((R)-3-(4-amino-3-(4-phenoxyphenyl)-1H-pyrazolo[3,4-d]pyrimidine-1-yl)piperidin-1-yl)ethoxy)propionyl)-6′-oxo-3′,4′,6′,8′-tetrahydro-7′H-spiro[piperidine-4, 2′-pyrano[2,3-f]isoindol]-7′-yl)piperidine-2,6-dione] | – | 22.6 µM | 19.1 µM
Nc1ncnc2c1c(-c1ccc(Oc3ccccc3)cc1)nn2[C@@H]1CCCN(CCOCCC(=O)N2CCC3(CCc4cc5c(cc4O3)C(=O)N(C3CCC(=O)NC3=O)C5)CC2)C1 (stereo partly drawn) [PROTAC 36, 3-(1-(3-(2-((R)-3-(4-amino-3-(4-phenoxyphenyl)-1H-pyrazolo[3,4-d]pyrimidine-1-yl)piperidin-1-yl)ethoxy)propionyl)-8′-oxo-3′,4′,6′,8′-tetrahydro-7′H-spiro[piperidine-4, 2′-pyrano[2,3-f]isoindol]-7′-yl)piperidine-2,6-dione] | – | 25.4 µM | 19.2 µM
Nc1ncnc2c1c(-c1ccc(Oc3ccccc3)cc1)nn2[C@@H]1CCCN(CCOCCC(=O)N2CCC3(CC2)COc2cc4c(cc2O3)CN(C2CCC(=O)NC2=O)C4=O)C1 (stereo partly drawn) [PROTAC 37, 3-(1-(3-(2-((R)-3-(4-amino-3-(4-phenoxyphenyl)-1H-pyrazolo[3,4-d]pyrimidine-1-yl)piperidin-1-yl)ethoxy)propionyl)-6′-oxo-6′,8′-dihydro-3′H,7′H-spiro[piperidine-4,2′-[1,4]dioxino[2,3-f]isoindole]-7′-yl)piperidine-2,6-dione] | – | 36.1 µM | 32.4 µM
